In US7943624B2, “Pyridinylpyrazolopyrimidinone derivatives as PDE 7 inhibitors” (Asubio Pharma Co. Ltd., priority 2003, dated 2011):
Values joined by “and” are separate entries in the source; they are usually repeats but may differ in a detail not shown here. Identical values can stand only once.

biological target: T1, PDE 7 (phosphodiesterase VII) (Homo sapiens, UniProt Q13946); test: PDE 7 inhibiting effect (Biological Test 1; 3H-cAMP hydrolysis by PDE 7 fraction from MOLT-4 cells); type: biochemical; settings: PDE 7 active fraction from MOLT-4 cells; 0.064 μM cAMP, 10 μM rolipram, 2 hours at 25° C.
T1 construct: filtrated with 0.2 μm filter to obtain the soluble fraction; endogenous in cells; host or cells: MOLT-4 (ATCC CRL-1582); soluble fraction, HiTrap Q eluate at about 350 mM NaCl
Procedure: The PDE 7 (phosphodiesterase VII) inhibiting effect of the compounds of the present invention was performed by the following method, which was modified assay method described in Biochemical. Pharmacol. 48(6), 1219-1223 (1994).
(1) The active fraction of PDE 7 (phosphodiesterase VII) was obtained. That is, MOLT-4 (obtainable from ATCC as ATCC No. CRL-1582), which was cell line of human acute lymphoblastic lymphoma T cells, was incubated in RPMI1640 culture medium containing 10% fetal bovine serum to obtain 5×10^8 MOLT-4 cells. The cells were collected by centrifugation and suspended with 10 mL of buffer solution A 125 mM of tris-HCl, 5 mM of 2-mercaptoethnol, 2 mM of benzamidine, 2 mM of EDTA, 0.1 μM of 4-(2-aminoethyl)benzensulfonyl hydrochloride; pH 7.5], then homogenized by Polytron® homogenizer. The homogenate were centrifuged under 25,000×G for 10 minutes at 4° C. The supernatant was separated and thus obtained supernatant was further centrifuged under 100,000×G for 60 minutes at 4° C., and then filtrated with 0.2 μm filter to obtain the soluble fraction.
(2) The obtained soluble fraction was filled in equilibrium HiTrap Q column (5 mL×2) with buffer solution A, and phosphodiesterase fractions were eluted by 300 mL of buffer solution A with linear gradient from 0 to 0.8 M NaCl concentration. 5 ml each of 60 eluents were collected, and each eluents were examined for cyclic AMP metabolic activities of phosphodiesterase. The fraction eluting with about 350 mM NaCl concentration parts, where metabolic activities were not inactivated by 10 μM of rolipram (selective inhibitor for phosphodiesterase IV) and 10 μM of milrinone (selective inhibitor for phosphodiesterase III), were collected as storage solution for using to test PDE 7 inhibiting effect.
(3) The tested compound having desired concentration was reacted in the solution of 20 mM tris-HCl (pH 7.5), 1 mM of MgCl2, 100 μM of EDTA, 330 μg/mL of bovine serum albumin, 4 μg/mL of 5′-nucleotidase, 0.1 μCi of ^3H-cAMP (0.064 μM of cAMP), 10 μM of rolipram in storage solution of PDE 7 for 2 hours at 25° C. After the reaction, suspension of Sephadex®-QAE in 10 mM of HEPES-Na (pH 7.0) was added to the reaction mixture, and the mixture was left at rest for 5 minutes. Further, Sephadex®-QAE was added to the obtained supernatant and the mixture was leaved at rest for 5 minutes, then, the radioactivity of the solution was measured.
(4) IC50 was calculated as 50% inhibiting concentration of the metabolic activities of phosphodiesterase VII of the tested compound.

T1 sequence (Q13946 whole entry): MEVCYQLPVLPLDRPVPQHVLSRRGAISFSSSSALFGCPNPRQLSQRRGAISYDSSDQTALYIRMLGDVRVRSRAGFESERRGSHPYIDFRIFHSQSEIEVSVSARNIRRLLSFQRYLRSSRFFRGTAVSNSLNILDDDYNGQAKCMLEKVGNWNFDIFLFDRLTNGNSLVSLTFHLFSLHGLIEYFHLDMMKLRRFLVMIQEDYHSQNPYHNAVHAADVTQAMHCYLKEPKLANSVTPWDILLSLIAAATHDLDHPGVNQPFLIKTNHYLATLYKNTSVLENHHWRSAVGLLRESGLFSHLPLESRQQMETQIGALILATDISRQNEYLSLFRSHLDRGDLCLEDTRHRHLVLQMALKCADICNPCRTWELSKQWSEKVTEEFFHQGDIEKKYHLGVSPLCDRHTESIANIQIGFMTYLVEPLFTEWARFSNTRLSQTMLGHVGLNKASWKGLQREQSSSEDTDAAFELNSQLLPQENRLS

**Q.** For `COc1nc(S(=O)(=O)N2CCCN(C)CC2)ccc1-c1nc2c(c(C3CCCCC3)nn2C)c(=O)[nH]1` [Compound 36, 3-Cyclohexyl-6-{2-methoxy-6-[(4-methyl-1,4-diazepan-1-yl)sulfonyl]-3-pyridinyl}-1-methyl-1,5-dihydro-4H-pyrazolo[3,4-d]pyrimidin-4-one], which IC50 is on record?
**A.** The IC50 was no more than 100 nM.

**Q.** With `COc1nc(N2CCCN(C)CC2)ccc1-c1nc2c(C)nn(C3CCCCC3)c2c(=O)[nH]1` [Compound 18, 1-Cyclohexyl-5-[2-methoxy-6-(4-methyl-1,4-diazepan-1-yl)-3-pyridinyl]-3-meth-1-1,6-dihydro-7H-pyrazolo[4,3-d]pyrimidin-7-one] as the molecule, how does the IC50 read?
**A.** Its IC50 is no more than 100 nM.

**Q.** How did the IC50 turn out when `COc1nc(N2CCC(O)CC2)ccc1-c1nc2c(c(C3CCCCC3)nn2C)c(=O)[nH]1` [Compound 25, 3-Cyclohexyl-6-[6-(4-hydroxy-1-piperidinyl)-2-methoxy-3-pyridinyl]-1-methyl-1,5-dihydro-4H-pyrazolo[3,4-d]pyrimidin-4-one] was run?
**A.** Its IC50 is no more than 100 nM.

**Q.** For `COc1nc(N2CCC(N)CC2)ccc1-c1nc2c(c(C3CCCCC3)nn2C)c(=O)[nH]1` [Compound 28, 6-[6-(4-Amino-1-piperidinyl)-2-methoxy-3-pyridinyl]-3-cyclohexyl-1-methyl-1,5-dihydro-4H-pyrazolo[3,4-d]pyrimidin-4-one], which IC50 is on record?
**A.** Its IC50 is no more than 100 nM.

**Q.** How did the IC50 turn out when `CCOc1nc(N2CCN(C)CC2)ccc1-c1nc2c(C)nn(C3CCCCC3)c2c(=O)[nH]1` [Compound 43] was run?
**A.** The IC50 was no more than 100 nM.

**Q.** Which IC50 does the source give for `COc1nc(N2CCC(NC(C)=O)CC2)ccc1-c1nc2c(c(C3CCCCC3)nn2C)c(=O)[nH]1` [Compound 29, N-{1-[5-(3-Cyclohexyl-1-methyl-4-oxo-4,5-dihydro-1H-pyrazolo[3,4-d]-pyrimidin-6-yl)-6-methoxy-2-piridinyl]-4-piperidinyl}acetamide] here?
**A.** Its IC50 is no more than 100 nM.

**Q.** Which IC50 does the source give for `CCOc1nc(N2CCC(O)CC2)ccc1-c1nc2c(C)nn(C3CCCCC3)c2c(=O)[nH]1` [Compound 49, 1-Cyclohexyl-5-[2-ethoxy-6-(4-hydroxy-1-piperidinyl)-3-pyridinyl]-3-methyl-1,6-dihydro-7H-pyrazolo[4,3-d]pyrimidin-7-one] here?
**A.** Its IC50 is no more than 100 nM.

**Q.** How did the IC50 turn out when `COc1nc(N2CCCN(C)CC2)ccc1-c1nc2c(c(C3CCCCC3)nn2C)c(=O)[nH]1` [Compound 22, 3-Cyclohexyl-6-[2-methoxy-6-(4-methyl-1,4-diazepan-1-yl)-3-pyridinyl]-1-methyl-1.5-dihydro-4H-pyrazolo[3,4-d]pyrimidin-4-one] was run?
**A.** Its IC50 is no more than 100 nM.

**Q.** For `COc1nc(N2CCC(O)CC2)ccc1-c1nc2c(C)nn(C3CCCCC3)c2c(=O)[nH]1` [Compound 37, 1-Cyclohexyl-5-[6-(4-hydroxy-1-piperidinyl)-2-methoxy-3-pyridinyl]-3-methyl-1,6-dihydro-7H-pyrazolo[4,3-d]pyrimidin-7-one], which IC50 is on record?
**A.** Its IC50 is no more than 100 nM.

**Q.** `COc1nc(N2CCC(N(C)C)CC2)ccc1-c1nc2c(c(C3CCCCC3)nn2C)c(=O)[nH]1` [Compound 27, 3-Cyclohexyl-6-{6-[4-(dimethylamino)-1-piperidinyl]-2-methoxy-3-pyridinyl}-1-methyl-1.5-dihydro-4H-pyrazolo[3,4-d]-pyrimidin-4-one] was tested. Which IC50 did it give?
**A.** Its IC50 is no more than 100 nM.

**Q.** Which IC50 does the source give for `COc1nc(N2CCOCC2)ccc1-c1nc2c(c(C3CCCCC3)nn2C)c(=O)[nH]1` [Compound 21, 3-Cyclohexyl-6-[2-methoxy-6-(4-morpholinyl)-3-pyridinyl]-1-methyl-1,5-dihydro-4H-pyrazolo[3,4-d]pyrimidin-4-one] here?
**A.** Its IC50 is no more than 100 nM.

**Q.** How did the IC50 turn out when `CCOc1nc(N2CCCN(C)CC2)ccc1-c1nc2c(C)nn(C3CCCCC3)c2c(=O)[nH]1` [Compound 44, 1-Cyclohexyl-5-[2-ethoxy-6-(4-methyl-1,4-diazepan-1-yl)-3-pyridinyl]-3-methyl-1,6-dihydro-7H-pyrazolo[4,3-d]pyrimidin-7-one] was run?
**A.** Its IC50 is no more than 100 nM.

**Q.** Which IC50 does the source give for `CCOc1nc(N2CCC(NC)CC2)ccc1-c1nc2c(C)nn(C3CCCCC3)c2c(=O)[nH]1` [Compound 48, 1-Cyclohexyl-5-{2-ethoxy-6-[4-(methylamino)-1-piperidinyl]-3-pyridinyl}-3-methyl-1,6-dihydro-7H-pyrazolo[4,3-d]pyrimidin-7-one] here?
**A.** Its IC50 is no more than 100 nM.

**Q.** For `CNC1CCN(c2ccc(-c3nc4c(c(C5CCCCC5)nn4C)c(=O)[nH]3)c(OC)n2)CC1` [Compound 26, 3-Cyclohexyl-6-{2-methoxy-6-[4-(methylamino)-1-piperidinyl]-3-pyridinyl}-1-methyl-1,5-dihydro-4H-pyrazolo[3,4-d]-pyrimidin-4-one], which IC50 is on record?
**A.** The IC50 was ≤ 100 nM and 2.6 nM.

**Q.** For `COc1nc(N2CCN(C)CC2)ccc1-c1nc2c(C)nn(C3CCCCC3)c2c(=O)[nH]1` [Compound 16, 1-Cyclohexyl-5-[2-methoxy-6-(4-methyl-1-piperazinyl)-3-pyridinyl]-3-methyl-1,6-dihydro-7H-pyrazolo[4,3-d]pyrimidin-7-one], which IC50 is on record?
**A.** The IC50 was no more than 100 nM.

**Q.** Which IC50 does the source give for `CCOc1nc(N2CCC(N(C)C)CC2)ccc1-c1nc2c(C)nn(C3CCCCC3)c2c(=O)[nH]1` [Compound 47, 1-Cyclohexyl-5-{6-[4-(dimethylamino)-1-piperidinyl]-2-ethoxy-3-pyridinyl]-3-methyl-1,6-dihydro-7H-pyrazolo[4,3-d]-pyrimidin-7-one] here?
**A.** Its IC50 is no more than 100 nM.

**Q.** `COc1nc(N2CCC(N(C)C)CC2)ccc1-c1nc2c(C)nn(C3CCCCC3)c2c(=O)[nH]1` [Compound 33] was tested. Which IC50 did it give?
**A.** The IC50 was no more than 100 nM.

**Q.** For `COc1nc(N2CCN(C)CC2)ccc1-c1nc2c(c(C3CCCCC3)nn2C)c(=O)[nH]1` [Compound 20, 3-Cyclohexyl-6-[2-methoxy-6-(4-methyl-1-piperazinyl)-3-pyridinyl]-1-methyl-1,5-dihydro-4H-pyrazolo[3,4-d]pyrimidin-4-one], which IC50 is on record?
**A.** The IC50 was no more than 100 nM.

**Q.** Which IC50 does the source give for `CNC1CCN(c2ccc(-c3nc4c(C)nn(C5CCCCC5)c4c(=O)[nH]3)c(OC)n2)CC1` [Compound 32] here?
**A.** The IC50 was ≤ 100 nM and 3.2 nM.

**Q.** With `COc1nc(N2CCOCC2)ccc1-c1nc2c(C)nn(C3CCCCC3)c2c(=O)[nH]1` [Compound 17, 1-Cyclohexyl-5-[2-methoxy-6-(4-morpholinyl)-3-pyridinyl]-3-methyl-1,6-dihydro-7H-pyrazolo[4,3-d]pyrimidin-7-one] as the molecule, how does the IC50 read?
**A.** The IC50 was no more than 100 nM.

biological target: PDE 4 (phosphodiesterase IV); test: PDE 4 inhibiting effect (Biological Test 2; 3H-cAMP hydrolysis by PDE 4 fraction from Balb/c mouse liver); type: biochemical, mice; settings: PDE 4 active fraction from Balb/c mouse liver; 0.064 μM cAMP, 2 hours at 25° C.
Procedure: The PDE 4 (phosphodiesterase IV) inhibiting effect of the compounds of the present invention was performed by the following method, which was modified assay method described in Biochemical. Pharmacol. 48(6), 1219-1223 (1994).
(1) The active fraction of PDE 4 (phosphodiesterase IV) was obtained. That is, the livers obtained from three Balb/c mice (male, 12 weeks: obtainable from CLEA Japan, Inc.) were suspended with 30 mL of buffer solution B [20 mM of bis-tris, 5 mM of 2-mercaptoethnol, 2 mM of benzamidine, 2 mM of EDTA, 0.1 mM of 4-(2-aminoethyl)benzensulfonyl hydrochloride, 50 mM of sodium acetate; pH 6.5], then homogenized by Polytron® homogenizer. The homogenate were centrifuged under 25,000×G for 10 minutes at 4° C. The supernatant was separated and thus obtained supernatant was further centrifuged under 100,000×G for 60 minutes at 4° C., and then filtrated with 0.2pm filter to obtain the soluble fraction. […]
(3) The tested compound having desired concentration was reacted in the solution of 20 mM tris-HCl (pH 7.5), […], 100 μM of EDTA, 330 μg/mL of bovine serum albumin, 4 μg/mL of 5′-nucleotidase, 0.1 μCi of ^3H-cAMP (0.064 μM of cAMP), and storage solution of PDE 4 for 2 hours at 25° C. […] Further, Sephadex®-QAE was added to the obtained supernatant and the mixture was left at rest for 5 minutes, then, the radioactivity of the solution was measured. […]

**Q.** With `CNC1CCN(c2ccc(-c3nc4c(c(C5CCCCC5)nn4C)c(=O)[nH]3)c(OC)n2)CC1` [Compound 26, 3-Cyclohexyl-6-{2-methoxy-6-[4-(methylamino)-1-piperidinyl]-3-pyridinyl}-1-methyl-1,5-dihydro-4H-pyrazolo[3,4-d]-pyrimidin-4-one] as the molecule, how does the IC50 read?
**A.** The IC50 was 1200 nM.

**Q.** Which IC50 does the source give for `CNC1CCN(c2ccc(-c3nc4c(C)nn(C5CCCCC5)c4c(=O)[nH]3)c(OC)n2)CC1` [Compound 32] here?
**A.** The IC50 was 980 nM.
